Test results: article PMC8119466, “A screen of FDA-approved drugs identifies inhibitors of protein tyrosine phosphatase 4A3 (PTP4A3 or PRL-3)” (Scientific Reports, 2021)
Structures can show the parent of a compound that is named as a salt.

How the values were obtained:
Format in all cases: biochemical
Settings in all cases: FDA-approved drug screen; compared to DMSO
recombinant PRL-2 = target: T1, recombinant PRL-2 (Homo sapiens, UniProt Q12974); assay: In vitro phosphatase assay (DiFMUP hydrolysis), PRL-2;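 also: PRL-2 activity read as DiFMUP hydrolysis after 20 min at room temperature with drug, enzyme first pre-reduced at 4 °C for 20 min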
T1 construct: 6xHis (N, cleaved yes); made in house; host or cells: E. coli One Shot BL21 Star
T1 sequence (Q12974 1-167): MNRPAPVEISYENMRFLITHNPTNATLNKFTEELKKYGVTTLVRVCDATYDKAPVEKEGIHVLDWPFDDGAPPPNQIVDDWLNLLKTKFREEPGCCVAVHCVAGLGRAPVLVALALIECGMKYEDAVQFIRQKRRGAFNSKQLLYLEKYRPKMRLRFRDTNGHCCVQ

recombinant PRL-3 = target: T2, recombinant PRL-3 (Homo sapiens, UniProt O75365); assay: In vitro phosphatase assay (DiFMUP hydrolysis), PRL-3; also: test concentration or dose not given here
T2 construct: 6xHis (N, cleaved yes); made in house; host or cells: E. coli One Shot BL21 Star

recombinant PRL-1 = target: T3, recombinant PRL-1 (Homo sapiens, UniProt Q93096); assay: In vitro phosphatase assay (DiFMUP hydrolysis), PRL-1; also: test concentration or dose not given here
T3 construct: 6xHis (N, cleaved yes); made in house; host or cells: E. coli One Shot BL21 Star
T3 sequence (Q93096 1-173): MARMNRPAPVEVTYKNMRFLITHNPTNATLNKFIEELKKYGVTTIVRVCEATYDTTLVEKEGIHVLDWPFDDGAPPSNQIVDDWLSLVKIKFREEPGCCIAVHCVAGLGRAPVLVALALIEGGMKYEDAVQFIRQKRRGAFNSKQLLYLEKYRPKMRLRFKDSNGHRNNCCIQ

T2 sequence (O75365 whole entry): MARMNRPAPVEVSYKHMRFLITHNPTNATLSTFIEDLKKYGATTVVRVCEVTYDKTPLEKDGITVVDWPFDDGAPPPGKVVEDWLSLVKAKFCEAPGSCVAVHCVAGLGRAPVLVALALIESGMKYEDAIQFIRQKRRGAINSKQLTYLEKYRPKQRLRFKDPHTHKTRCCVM

SMILES	% Phosphatase Activity (compared to DMSO) PRL-2 (recombinant PRL-2) [%]	% Phosphatase Activity (compared to DMSO) PRL-3 (recombinant PRL-3) [%]	% Phosphatase Activity (compared to DMSO) PRL-1 (recombinant PRL-1) [%]
CNC(=O)[C@H](Cc1c[nH]c2ccccc12)NC(=O)[C@@H](CC(=O)NO)CC(C)C [Ilomastat (GM6001, Galardin)]	80	91	94
COc1cc(C(C)=O)ccc1OCCCN1CCC(c2noc3cc(F)ccc23)CC1 [Iloperidone]	88	80	105
CCOC(=O)[C@H](CCc1ccccc1)N[C@@H](C)C(=O)N1C(=O)N(C)C[C@H]1C(=O)O [Imidapril HCl]	95	76	105
CC(C)Cn1cnc2c(N)nc3ccccc3c21 [Imiquimod]	106	67	98
CCc1cc2c(cc1CC)CC(NC[C@H](O)c1ccc(O)c3[nH]c(=O)ccc13)C2 [Indacaterol Maleate]	100	95	95
CC1Cc2ccccc2N1NC(=O)c1ccc(Cl)c(S(N)(=O)=O)c1 (stereo not drawn) [Indapamide]	105	117	98
COc1ccc2c(c1)c(CC(=O)O)c(C)n2C(=O)c1ccc(Cl)cc1 [Indomethacin]	106	71	96
NC(=O)c1ccc(I)c([N+](=O)[O-])c1 [Iniparib (BSI-201)]	112	78	107
C[C@H](O)C(=O)Nc1c(I)c(C(=O)NC(CO)CO)c(I)c(C(=O)NC(CO)CO)c1I [Iopamidol]	98	90	96
CC(C)[N+]1(C)[C@@H]2CC[C@H]1C[C@@H](OC(=O)C(CO)c1ccccc1)C2 (stereo partly drawn) [Ipratropium Bromide]	93	83	103
CCCCC1=NC2(CCCC2)C(=O)N1Cc1ccc(-c2ccccc2-c2nnn[nH]2)cc1 [Irbesartan]	87	84	95
CCc1c2c(nc3ccc(OC(=O)N4CCC(N5CCCCC5)CC4)cc13)-c1cc3c(c(=O)n1C2)COC(=O)[C@]3(O)CC.Cl.O.O.O [Irinotecan HCl Trihydrate]	4207	4074	4597
CCc1c2c(nc3ccc(OC(=O)N4CCC(N5CCCCC5)CC4)cc13)-c1cc3c(c(=O)n1C2)COC(=O)[C@]3(O)CC [Irinotecan]	5728	3887	4706
Nc1nc(N)nc(-c2cc(Cl)ccc2Cl)n1 [Irsogladine]	106	81	84
Clc1ccc(C(Cn2ccnc2)OCc2c(Cl)cccc2Cl)c(Cl)c1 (stereo not drawn) [Isoconazole nitrate]	110	89	112
CCC(NC(C)C)C(O)c1ccc(O)c(O)c1 (stereo not drawn) [Isoetharine Mesylate]	98	93	103
NNC(=O)c1ccncc1 [Isoniazid]	94	91	91
CC(C)NCC(O)c1ccc(O)c(O)c1.Cl (stereo not drawn) [Isoprenaline HCl]	124	94	114
O=[N+]([O-])O[C@@H]1CO[C@H]2[C@@H]1OC[C@@H]2O [Isosorbide Mononitrate]	85	81	91
CC1=C(/C=C/C(C)=C/C=C/C(C)=C\C(=O)O)C(C)(C)CCC1 [Isotretinoin]	71	57	72

SMILES	% Phosphatase Activity (compared to DMSO) PRL-2 (recombinant PRL-2) [%]	% Phosphatase Activity (compared to DMSO) PRL-3 (recombinant PRL-3) [%]	% Phosphatase Activity (compared to DMSO) PRL-1 (recombinant PRL-1) [%]
Cc1cc(NC(=O)C2=C(O)c3ccccc3S(=O)(=O)N2C)no1 [Isoxicam]	91	84	91
Cc1ccc(C(=O)N(CCCN)[C@@H](c2nc3cc(Cl)ccc3c(=O)n2Cc2ccccc2)C(C)C)cc1 [Ispinesib (SB-715992)]	108	80	103
COC(=O)C1=C(C)NC(C)=C(C(=O)OC(C)C)C1c1cccc2nonc12 (stereo not drawn) [Isradipine]	74	71	94
COc1ccc(C(=O)NCc2ccc(OCCN(C)C)cc2)cc1OC.Cl [Itopride hydrochloride]	115	80	95
COc1cc2c(cc1OC)CC(=O)N(CCCN(C)C[C@H]1Cc3cc(OC)c(OC)cc31)CC2.Cl [Ivabradine HCl]	113	71	108
CC(C)(C)c1cc(C(C)(C)C)c(NC(=O)c2c[nH]c3ccccc3c2=O)cc1O [Ivacaftor (VX-770)]	87	77	95
CC[C@H](C)[C@H]1O[C@]2(CC[C@@H]1C)C[C@@H]1C[C@@H](C/C=C(\C)[C@@H](O[C@H]3C[C@H](OC)[C@@H](O[C@H]4C[C@H](OC)[C@@H](O)[C@H](C)O4)[C@H](C)O3)[C@@H](C)/C=C/C=C3\CO[C@@H]4[C@H](O)C(C)=C[C@@H](C(=O)O1)[C@]34O)O2 [Ivermectin]	102	69	91
O=C(/C=C\n1cnc(-c2cc(C(F)(F)F)cc(C(F)(F)F)c2)n1)NNc1cnccn1 [KPT-330]	69	97	87
CC(=O)N1CCN(c2ccc(OCC3COC(Cn4ccnc4)(c4ccc(Cl)cc4Cl)O3)cc2)CC1 (stereo not drawn) [Ketoconazole]	89	75	92
CC(C(=O)O)c1cccc(C(=O)c2ccccc2)c1 (stereo not drawn) [Ketoprofen]	95	87	105
O=C(c1ccccc1)c1ccc2n1CCC2C(=O)O (stereo not drawn) [Ketorolac]	97	78	98
CN1CCC(=C2c3ccccc3CC(=O)c3sccc32)CC1 [Ketotifen Fumarate]	97	89	93
Cl.N=C(N)NCCC[C@H](N)C(=O)O [L-Arginine HCl (L-Arg)]	91	104	82
NC(=O)CC[C@H](N)C(=O)O [L-Glutamine]	77	87	94
N[C@@H](Cc1cc(I)c(Oc2cc(I)c(O)c(I)c2)c(I)c1)C(=O)O [L-Thyroxine]	92	81	79
C[N+](C)(C)C[C@H](O)CC(=O)[O-] [L-carnitine]	103	83	102
Cc1c(C(=O)Nc2ccc(N3C[C@@H](C)O[C@@H](C)C3)nc2)cccc1-c1ccc(OC(F)(F)F)cc1 [LDE225 (NVP-LDE225,Erismodegib)]	111	83	97
Cc1cc(Nc2ncc(Cl)c(Nc3ccccc3S(=O)(=O)C(C)C)n2)c(OC(C)C)cc1C1CCNCC1 [LDK378]	92	114	99
CN(C)C(=O)c1cc2cnc(Nc3ccc(N4CCNCC4)cn3)nc2n1C1CCCC1 [LEE011]	84	98	103
